This passage reports inhibition results from patent US9271971B2, “Pyrido[3,4-B]indoles and methods of use” (Medivation Technologies, Inc., priority 2009, dated 2016).

In assay [1] the target is T1, human recombinant adrenergic α1D receptor (Homo sapiens, UniProt P25100).
T1 construct: expressed in transfected cells; host or cells: human embryonic kidney (HEK-293) cells
T1 sequence (P25100 1-572): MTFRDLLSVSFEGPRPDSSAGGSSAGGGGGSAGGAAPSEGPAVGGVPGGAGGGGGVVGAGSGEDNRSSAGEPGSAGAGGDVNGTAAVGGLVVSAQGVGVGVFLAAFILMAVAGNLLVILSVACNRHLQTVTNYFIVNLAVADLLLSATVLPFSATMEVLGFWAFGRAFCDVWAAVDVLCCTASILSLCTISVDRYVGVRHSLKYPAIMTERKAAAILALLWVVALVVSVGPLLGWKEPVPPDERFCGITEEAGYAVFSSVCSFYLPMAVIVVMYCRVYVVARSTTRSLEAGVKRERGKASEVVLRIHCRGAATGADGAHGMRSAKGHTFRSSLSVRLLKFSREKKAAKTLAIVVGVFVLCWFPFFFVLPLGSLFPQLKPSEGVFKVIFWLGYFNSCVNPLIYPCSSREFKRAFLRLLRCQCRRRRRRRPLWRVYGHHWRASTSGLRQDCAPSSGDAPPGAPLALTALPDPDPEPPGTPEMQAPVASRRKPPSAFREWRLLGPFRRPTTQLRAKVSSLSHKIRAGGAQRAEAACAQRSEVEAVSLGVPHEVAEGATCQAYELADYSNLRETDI
Put plainly: Adrenergic α1D radioligand binding assay. As to conditions: [3H]Prozosin specific binding; for inhibition at 1 µM: read-out: Percent Inhibition of ligand binding, Adrenergic (1 μM ligand conc.) α1D. The method, then: To evaluate in radioligand binding assays the activity of compounds of the invention, human recombinant adrenergic α1D receptor expressed in human embryonic kidney (HEK-293) cells [Kenny, B. A. et al. Br. J. Pharmacol. (1995), 115(6):981] in a 50 mM Tris-HCl buffer, pH 7.4, was used. Compounds of invention were incubated with 0.6 nM [^3H]Prozosin for 60 min. at 25° C. Non-specific binding was estimated in the presence of 10 μM phentolamine. Receptor proteins were filtered and washed, the filters were then counted to determine [^3H]Prozosin specifically bound. Compounds were screened at 1 μM or lower, using 1% DMSO as vehicle. Compounds of the invention were tested in this biochemical assay. Biochemical assay results for representative compounds were presented as the percent inhibition of specific binding in Table 3.

Assay [2] addresses T2, human recombinant serotonin (5-Hydroxytryptamine) 5-HT6 receptor (Homo sapiens, UniProt P50406).
T2 construct: expressed in transfected cells; host or cells: human HeLa cells
Put plainly: Serotonin 5-HT6 radioligand binding assay. As to conditions: [3H]LSD specific binding, read-out: Percent Inhibition of ligand binding, Serotonin (1 μM ligand concentration) 5-HT6. The method, then: To evaluate in radioligand binding assays the activity of compounds of the invention, human recombinant serotonin (5-Hydroxytryptamine) 5-HT6 receptor expressed in human HeLa cells [Monsma, F. J. Jr et al., Mol. Pharmacol. (1993), 43:320] in a modified Tris-HCl buffer (50 mM Tris-HCl, pH 7.4, 150 mM NaCl, 2 mM Ascorbic Acid, 0.001% BSA) was used. Compounds of the invention were incubated with 1.5 nM [3H]Lysergic acid diethylamide (LSD) for 120 min. at 37° C. Non-specific binding was estimated in the presence of 5 μM Serotonin (5-HT). Receptor proteins were filtered and washed, the filters were then counted to determine[3H]LSD specifically bound. Compounds were screened at 1 μM or lower, using 1% DMSO as vehicle. Biochemical assay results are presented as the percent inhibition of specific binding in Table 4.

The target of assay [3] is T3, human recombinant histamine H2 receptor (Homo sapiens, UniProt P25021).
T3 construct: expressed in transfected cells; host or cells: Chinese hamster ovary (CHO) K1 cells
The assay can be described thus: Histamine H2 radioligand binding assay. The settings on record: [125I]Aminopotentidine specific binding, read-out: Percentage Inhibition, Histamine Binding (1 μM) H2. The method, then: To evaluate in radioligand binding assays the activity of compounds of the invention, human recombinant histamine H2 receptor expressed in Chinese hamster ovary (CHO) K1 cells [Ruat, M., Proc. Natl. Acad. Sci. USA. (1990), 87(5):1658] in a 50 mM Phosphate buffer, pH 7.4 was used. Compounds of the invention were incubated with 0.1 nM [^125I]Aminopotentidine for 120 min. at 25° C. Non-specific binding was estimated in the presence of 3 μM Tiotidine. Receptor proteins were filtered and washed, the filters were then counted to determine [^125I]Aminopotentidine specifically bound. Compounds were screened at 1 μM or lower, using 1% DMSO as vehicle. Biochemical assay results are presented as the percent inhibition of specific binding in Table 2.

Assay [4] deals with T4, human recombinant adrenergic α2B receptor (Homo sapiens, UniProt P18089).
T4 construct: expressed in transfected cells; host or cells: Chinese hamster ovary (CHO-K1) cells
T4 sequence (P18089 1-450): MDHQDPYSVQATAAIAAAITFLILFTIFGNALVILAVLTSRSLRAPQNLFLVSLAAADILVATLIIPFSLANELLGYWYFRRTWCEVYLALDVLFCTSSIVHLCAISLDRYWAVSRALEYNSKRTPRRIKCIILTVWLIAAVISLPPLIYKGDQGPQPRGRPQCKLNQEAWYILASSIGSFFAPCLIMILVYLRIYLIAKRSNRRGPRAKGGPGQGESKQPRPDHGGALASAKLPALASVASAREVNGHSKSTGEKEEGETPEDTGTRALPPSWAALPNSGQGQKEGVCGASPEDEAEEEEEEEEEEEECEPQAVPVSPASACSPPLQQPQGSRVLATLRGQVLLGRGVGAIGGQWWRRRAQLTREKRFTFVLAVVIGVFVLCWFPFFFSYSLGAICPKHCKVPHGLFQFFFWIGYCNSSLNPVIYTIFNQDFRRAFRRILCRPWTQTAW
Put plainly: Adrenergic α2B radioligand binding assay. As to conditions: [3H]Rauwolscine specific binding; for inhibition at 1 µM: read-out: Percent Inhibition of ligand binding, Adrenergic (1 μM ligand conc.) α2B. The protocol:
To evaluate in radioligand binding assays the activity of compounds of the invention, human recombinant adrenergic α2B receptor expressed in Chinese hamster ovary (CHO-K1) cells [Uhlen, S et al., Eur J Pharmacol. (1998), 343(1):93] in a modified Tris-HCl buffer (50 mM Tris-HCl, pH 7.4, 12.5 mM MgCl2, 1 mM EDTA, 0.2% BSA) was used. Compounds of the invention were incubated with 2.5 nM [^3H]Rauwolscine for 60 min. at 25° C. Non-specific binding was estimated in the presence of 10 μM Prozosin. Receptor proteins were filtered and washed, the filters were then counted to determine [^3H]Rauwolscine specifically bound. Compounds were screened at 1 μM or lower, using 1% DMSO as vehicle. Compounds of the invention were tested in this biochemical assay. Biochemical assay results for representative compounds were presented as the percent inhibition of specific binding in Table 3.

T3 sequence (P25021 whole entry): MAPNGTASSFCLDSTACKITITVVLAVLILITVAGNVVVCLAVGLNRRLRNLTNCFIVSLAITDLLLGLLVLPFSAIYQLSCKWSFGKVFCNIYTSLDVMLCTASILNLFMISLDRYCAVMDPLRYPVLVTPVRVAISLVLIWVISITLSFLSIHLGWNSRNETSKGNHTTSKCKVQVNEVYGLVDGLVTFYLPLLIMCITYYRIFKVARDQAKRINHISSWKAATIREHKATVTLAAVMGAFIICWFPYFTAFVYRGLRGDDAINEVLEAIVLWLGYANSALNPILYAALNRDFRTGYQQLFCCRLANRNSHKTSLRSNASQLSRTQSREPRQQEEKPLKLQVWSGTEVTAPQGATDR
T2 sequence (P50406 whole entry): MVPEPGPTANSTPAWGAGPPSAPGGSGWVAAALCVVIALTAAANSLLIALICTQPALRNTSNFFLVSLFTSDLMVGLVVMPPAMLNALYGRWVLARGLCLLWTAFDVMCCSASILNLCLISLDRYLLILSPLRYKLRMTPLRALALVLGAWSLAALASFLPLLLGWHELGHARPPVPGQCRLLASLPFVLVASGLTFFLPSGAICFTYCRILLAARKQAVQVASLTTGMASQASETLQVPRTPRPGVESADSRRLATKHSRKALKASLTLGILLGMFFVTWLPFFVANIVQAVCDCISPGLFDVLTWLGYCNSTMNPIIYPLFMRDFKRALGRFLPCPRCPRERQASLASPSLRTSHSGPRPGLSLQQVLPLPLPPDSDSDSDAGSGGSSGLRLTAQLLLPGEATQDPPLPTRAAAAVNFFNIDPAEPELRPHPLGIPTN

Turning to `Cc1ccc(C(C)(O)Cn2c3c(c4cc(C)ccc42)C2CCN(C3)C2)cc1` (stereo not shown) [Compound 20], the inhibition at 1 µM in assay [1] stood at 29%; in assay [2] it was 13%; in assay [3], 2%; in assay [4] it was 97%.

With `Cc1ccc2c(c1)c1c(n2CCc2nc(-c3ccccc3)cs2)CN2CCC1C2` (stereo not shown) [Compound 19], the inhibition at 1 µM was 34% in assay [1], 9% in assay [2], -9% in assay [3] and 61% in assay [4].

Take `Cc1ccc2c(c1)c1c(n2CC(C)(O)c2ccc(F)c(F)c2)CN2CCC1C2` (stereo not shown) [Compound 15]: the inhibition at 1 µM came out at 28% in assay [1], 59% in assay [2], 13% in assay [3] and 106% in assay [4].

As to `C/C(=C\n1c2c(c3cc(C)ccc31)C1CCN(C2)C1)c1ccccc1F` (stereo not shown) [Compound 38], the inhibition at 0.1 µM in assay [1] (0.1 μM, read-out: Percent Inhibition of ligand binding, Adrenergic (0.1 μM ligand conc.) α1D) was -3%; in assay [4] (0.1 μM, read-out: Percent Inhibition of ligand binding, Adrenergic (0.1 μM ligand conc.) α2B), 25%. In addition, the inhibition at 1 µM in assay [2] worked out at 58%; in assay [3], 7%.
